For experiment [1], the system named is Plasmodium falciparum. Nature of the experiment: Antimalarial activity against Plasmodium falciparum. It is filed as functional, organism-based.
In experiment [2] the test system is Enterococcus faecium. Kind of experiment: Antimicrobial activity against vancomycin-resistant Enterococcus faecium. It is filed as functional.
For experiment [3], the system named is Staphylococcus aureus. Kind of experiment: Antimicrobial activity against methicillin-resistant Staphylococcus aureus. It is filed as functional.
The subject of experiment [4] is Candida albicans. Nature of the experiment: Antimicrobial activity against amphotericin B-resistant Candida albicans. The class given is functional.
Experiment [5] relates to SHP77. Nature of the experiment: Anticancer activity against human SHP77 cells. The class given is functional, cell-based.
Experiment [6] relates to CCRF-CEM. Kind of experiment: Anticancer activity against human CCRF-CEM cells. It is filed as functional, cell-based.

pIC50: −log10 of the molar value. ≈ marks a conversion by molar mass, not a printed value.

By pIC50 is commonly meant the negative decadic logarithm of the IC50, by convention in mol/L. One may read the MIC as the lowest concentration that inhibits growth of the organism.

As for `Cc1cc(O)c(C)c(CC[C@](C)(O)CCC[C@H](C)CCC[C@H](C)CCCC(C)C)c1O`, the negative-log IC50 (pIC50) in experiment [1] was 3.72. Further, the MIC in experiment [2] and in experiment [3] was above 500 µM in each case.
On to `CC1=CC(=O)C=C(CC[C@](C)(O)CCC[C@H](C)CCC[C@H](C)CCCC(C)C)C1=O`, for which, in experiment [1], the pIC50 was 5.00. The MIC in experiment [4], in experiment [2] and in experiment [3] was above 500 µM in each case.
As to `CC(C)=CCC[C@@](C)(O)[C@@H]1CC/C(C)=C/CC/C(C)=C/Cc2cc(ccc2O)C(=O)O1` [CALLOPHYCOLIDE A], the pIC50 in experiment [1] was 5.28; in experiment [5], 5.04; in experiment [6], 5.12. In addition, the MIC in experiment [4] was above 250 µM; in experiment [2], 9.1 µM (≈ 3.88 µg/mL); in experiment [3] it was 9.1 µM (≈ 3.88 µg/mL).
In turn, `CC1=C2Cc3cc(ccc3O)C(=O)O[C@H](C(C)(C)O)CC[C@]3(C)O[C@H]3C/C=C(\C)C2CC1` (some centres not stated) gave a pIC50 in experiment [1] below 4.00. Besides, the MIC in experiment [4] is above 500 µM.
`CC1=C2Cc3cc(ccc3O)C(=O)O[C@H](C(C)(C)Br)CC[C@](C)(O)[C@H](Br)CC[C@]2(C)[C@@H](Br)CC1` gave a pIC50 in experiment [1] of 6.15. In addition, the values for the MIC in experiment [4], in experiment [2] and in experiment [3] were 49 µM (≈ 32.6 µg/mL), 5.9 µM (≈ 3.93 µg/mL) and 5.9 µM (≈ 3.93 µg/mL), respectively.
Turning to `Cc1cc(O)cc(CC[C@](C)(O)CCC[C@H](C)CCC[C@H](C)CCCC(C)C)c1O`, the MIC was 220 µM (≈ 92.5 µg/mL) in experiment [1], above 500 µM in experiment [2] and above 500 µM in experiment [3].
